{
  "source": "patent US12479820B2",
  "about": "“Pyridin-3-yl derivatives” (Idorsia Pharmaceuticals Ltd, priority 2019, dated 2025)",
  "data": [
    {"biological_target": "T1, human LPA1 receptor (Homo sapiens, UniProt Q92633)", "T1 construct": "TEV protease site; Gal4-VP16 transcription factor; host or cells: Tango EDG2-bla U2OS cells", "T1 sequence (Q92633 whole entry, the tested form may be a part)": "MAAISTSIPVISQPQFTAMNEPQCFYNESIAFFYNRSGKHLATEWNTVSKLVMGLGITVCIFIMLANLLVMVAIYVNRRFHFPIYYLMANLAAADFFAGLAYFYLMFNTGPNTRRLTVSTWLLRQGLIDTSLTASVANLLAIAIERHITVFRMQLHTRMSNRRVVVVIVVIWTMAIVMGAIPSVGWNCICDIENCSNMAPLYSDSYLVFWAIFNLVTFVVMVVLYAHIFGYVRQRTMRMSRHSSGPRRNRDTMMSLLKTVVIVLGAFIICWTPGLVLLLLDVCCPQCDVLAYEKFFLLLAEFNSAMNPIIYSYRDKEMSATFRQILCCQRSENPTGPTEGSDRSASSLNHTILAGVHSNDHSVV", "assay": "Beta-arrestin recruitment assay to determine IC50 values for human LPAR1", "format": "cell-based", "settings": "Tango EDG2-bla U2OS cells, antagonist assay, LPA 18:1 500 nM final", "in_short": "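Tango EDG2-bla U2OS cells were preincubated 30 min at 37 °C with compound. They were then stimulated with 500 nM (final) LPA 18:1 for 16 h. β-Lactamase reporter read by LiveBLAzer FRET substrate (2 h) as the 460/530 nm ratio; IC50 from 4-parameter logistic fit.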", "units": {"IC50": "nM"}, "values": [
      {"smiles": "COc1cc(Cl)ncc1NC(=O)C1(c2ccccc2C(C)C)CN(S(N)(=O)=O)C1", "note": "[Example 21-2, N-(6-chloro-4-methoxypyridin-3-yl)-3-(2-isopropylphenyl)-1-sulfamoylazetidine-3-carboxamide]", "IC50": 3},
      {"smiles": "COc1cc(Cl)ncc1NC(=O)C1(c2ccccc2C(C)C)CN(c2ncncc2F)C1", "note": "[Example 24-10, N-(6-chloro-4-methoxypyridin-3-yl)-1-(5-fluoropyrimidin-4-yl)-3-(2-isopropylphenyl)azetidine-3-carboxamide]", "IC50": 2},
      {"smiles": "COc1cc(Cl)ncc1NC(=O)C1(c2ccccc2C(C)C)CN(c2ccncn2)C1", "note": "[Example 24-11, N-(6-chloro-4-methoxypyridin-3-yl)-3-(2-isopropylphenyl)-1-(pyrimidin-4-yl)azetidine-3-carboxamide]", "IC50": 5},
      {"smiles": "COc1cc(Cl)ncc1NC(=O)C1(c2ccccc2C(C)C)CN(c2ccnc(C)n2)C1", "note": "[Example 24-12, N-(6-chloro-4-methoxypyridin-3-yl)-3-(2-isopropylphenyl)-1-(2-methylpyrimidin-4-yl)azetidine-3-carboxamide]", "IC50": 7},
      {"smiles": "COc1cc(Cl)ncc1NC(=O)C1(c2ccccc2C(C)C)CN(c2ncncc2C)C1", "note": "[Example 24-13, N-(6-chloro-4-methoxypyridin-3-yl)-3-(2-isopropylphenyl)-1-(5-methylpyrimidin-4-yl)azetidine-3-carboxamide]", "IC50": 5},
      {"smiles": "COc1cc(Cl)ncc1NC(=O)C1(c2ccccc2C(C)C)CN(c2cc(C)ncn2)C1", "note": "[Example 24-14, N-(6-chloro-4-methoxypyridin-3-yl)-3-(2-isopropylphenyl)-1-(6-methylpyrimidin-4-yl)azetidine-3-carboxamide]", "IC50": 8},
      {"smiles": "COc1cc(Cl)ncc1NC(=O)C1(c2ccccc2C(C)C)CN(c2cc(Cl)nc(C)n2)C1", "note": "[Example 24-15, 1-(6-chloro-2-methylpyrimidin-4-yl)-N-(6-chloro-4-methoxypyridin-3-yl)-3-(2-isopropylphenyl)azetidine-3-carboxamide]", "IC50": 29},
      {"smiles": "COc1cc(Cl)ncc1NC(=O)C1(c2ccccc2C(C)C)CN(c2nc(C)ncc2F)C1", "note": "[Example 24-16, N-(6-chloro-4-methoxypyridin-3-yl)-1-(5-fluoro-2-methylpyrimidin-4-yl)-3-(2-isopropylphenyl)azetidine-3-carboxamide]", "IC50": 13},
      {"smiles": "COc1cc(Cl)ncc1NC(=O)C1(c2ccccc2C(C)C)CCN(c2ncncc2F)CC1", "note": "[Example 24-17, N-(6-chloro-4-methoxypyridin-3-yl)-1-(5-fluoropyrimidin-4-yl)-4-(2-isopropylphenyl)piperidine-4-carboxamide]", "IC50": 3},
      {"smiles": "COc1cc(Cl)ncc1NC(=O)C1(c2ccccc2C(C)C)CCN(c2nc(C)ncc2F)CC1", "note": "[Example 24-18, N-(6-chloro-4-methoxypyridin-3-yl)-1-(5-fluoro-2-methylpyrimidin-4-yl)-4-(2-isopropylphenyl)piperidine-4-carboxamide]", "IC50": 5},
      {"smiles": "COC(=O)c1cnc(N2CC(C(=O)Nc3cnc(Cl)cc3OC)(c3ccccc3C(C)C)C2)cn1", "note": "[Example 24-19, methyl 5-(3-((6-chloro-4-methoxypyridin-3-yl)carbamoyl)-3-(2-isopropylphenyl)azetidin-1-yl)pyrazine-2-carboxylate]", "IC50": 9},
      {"smiles": "COc1cc(Cl)ncc1NC(=O)C1(c2ccccc2C(C)C)CN(c2cnc(C(=O)O)cn2)C1", "note": "[Example 24-20, 5-(3-((6-chloro-4-methoxypyridin-3-yl)carbamoyl)-3-(2-isopropylphenyl)azetidin-1-yl)pyrazine-2-carboxylic acid]", "IC50": 145},
      {"smiles": "COC(=O)c1ccc(N2CC(C(=O)Nc3cnc(Cl)cc3OC)(c3ccccc3C(C)C)C2)nc1", "note": "[Example 24-21, methyl 6-(3-((6-chloro-4-methoxypyridin-3-yl)carbamoyl)-3-(2-isopropylphenyl)azetidin-1-yl)nicotinate]", "IC50": 12},
      {"smiles": "COC(=O)c1cnc(N2CC(C(=O)Nc3cnc(Cl)cc3OC)(c3ccccc3C(C)C)C2)nc1", "note": "[Example 24-22, methyl 2-(3-((6-chloro-4-methoxypyridin-3-yl)carbamoyl)-3-(2-isopropylphenyl)azetidin-1-yl)pyrimidine-5-carboxylate]", "IC50": 22},
      {"smiles": "COc1cc(Cl)ncc1NC(=O)C1(c2ccccc2C(C)C)CN(c2ncc(C(=O)O)cn2)C1", "note": "[Example 24-23, 2-(3-((6-chloro-4-methoxypyridin-3-yl)carbamoyl)-3-(2-isopropylphenyl)azetidin-1-yl)pyrimidine-5-carboxylic acid]", "IC50": 3150},
      {"smiles": "COC(=O)c1ccc(N2CC(C(=O)Nc3cnc(Cl)cc3OC)(c3ccccc3C(C)C)C2)nn1", "note": "[Example 24-24, methyl 6-(3-((6-chloro-4-methoxypyridin-3-yl)carbamoyl)-3-(2-isopropylphenyl)azetidin-1-yl)pyridazine-3-carboxylate]", "IC50": 24},
      {"smiles": "CCOC(=O)c1coc(N2CC(C(=O)Nc3cnc(Cl)cc3OC)(c3ccccc3C(C)C)C2)n1", "note": "[Example 24-25, ethyl 2-(3-((6-chloro-4-methoxypyridin-3-yl)carbamoyl)-3-(2-isopropylphenyl)azetidin-1-yl)oxazole-4-carboxylate]", "IC50": 15},
      {"smiles": "COc1cc(Cl)ncc1NC(=O)C1(c2ccccc2C(C)C)CN(c2nc(C(=O)O)co2)C1", "note": "[Example 24-26, 2-(3-((6-chloro-4-methoxypyridin-3-yl)carbamoyl)-3-(2-isopropylphenyl)azetidin-1-yl)oxazole-4-carboxylic acid]", "IC50": 91},
      {"smiles": "COc1cc(Cl)ncc1NC(=O)C1(c2ccccc2C(C)C)CN(c2nnn[nH]2)C1", "note": "[Example 25, N-(6-chloro-4-methoxypyridin-3-yl)-3-(2-isopropylphenyl)-1-(1H-tetrazol-5-yl)azetidine-3-carboxamide]", "IC50": 270},
      {"smiles": "COc1cc(Cl)ncc1NC(=O)C1(c2ccccc2C(C)C)CN(C2=NC(=O)CO2)C1", "note": "[Example 26, N-(6-chloro-4-methoxypyridin-3-yl)-3-(2-isopropylphenyl)-1-(4-oxo-4,5-dihydrooxazol-2-yl)azetidine-3-carboxamide]", "IC50": 12},
      {"smiles": "COc1cc(Cl)ncc1NC(=O)C1(c2ccccc2C(C)C)CN(c2c(O)c(=O)c2=O)C1", "note": "[Example 27, N-(6-chloro-4-methoxypyridin-3-yl)-1-(2-hydroxy-3,4-dioxocyclobut-1-en-1-yl)-3-(2-isopropylphenyl)azetidine-3-carboxamide]", "IC50": 55}
    ]},
    {"test_system": "LPA-induced skin vascular leakage in Balb/c mice", "assay": "mouse LPA-induced skin vascular leakage model", "format": "in vivo", "settings": "oral administration of 30 mg/kg to mice; extravasated Evans blue per skin disc", "experimental": "Assessment of In Vivo Potency\nThe in vivo potency of the compounds of Formula (I) can be determined using a mouse LPA-induced skin vascular leakage model. Female Balb/c mice are treated with either vehicle or test compound (e.g. at 30 mg/kg or 100 mg/kg p.o.) for at least 1 h prior to administration of the albumin marker Evans blue (50 mg/kg, i.v., 0.9% NaCl) and subsequent challenge with LPA (5 μg, i.d.). After 30 minutes, mice are sacrificed by CO2 inhalation. Discs of skin from the injection sites are removed, digested in formamide (500 μl, 37° C., 24 hrs) and the content of Evans blue quantified by colorimetric assay. Results are expressed as extravasated Evans blue per skin disc (μg/disc).\nAs an example, selected compound of the present invention, Ex 21-2, is able to effectively reduce LPA-induced vascular leakage after oral administration of 30 mg/kg to mice as compared to a group of animals treated with vehicle only. Reduction of vascular leakage compared to vehicle group was >60%.", "units": {"Reduction of vascular leakage compared to vehicle group": "%"}, "values": [
      {"smiles": "COc1cc(Cl)ncc1NC(=O)C1(c2ccccc2C(C)C)CN(S(N)(=O)=O)C1", "note": "[Example 21-2, N-(6-chloro-4-methoxypyridin-3-yl)-3-(2-isopropylphenyl)-1-sulfamoylazetidine-3-carboxamide]", "Reduction of vascular leakage compared to vehicle group": "> 60"}
    ]}
  ]
}
